The target of data set [1] is T1, P-gp (ABCB1) (Homo sapiens, UniProt P08183).
T1 construct: expressed in transfected cells; host or cells: NIH/3T3
Description: P-gp-mediated rhodamine 123 efflux inhibition (selectivity assay), ABCB1-transfected NIH/3T3 cells. It counts as cell-based. The following applies: probe rhodamine 123 (R123), 0.5 μM R123; for inhibition at 30 min, 1 μM: [Inhibitor] 1 μM; for inhibition at 30 min, 10 μM: [Inhibitor] 10 μM. As for the experimental part: (§1) The tests were performed in triplicate.

Data set [2] concerns the target T2, BCRP/ABCG2 (Homo sapiens, UniProt Q9UNQ0).
T2 sequence (Q9UNQ0 1-655): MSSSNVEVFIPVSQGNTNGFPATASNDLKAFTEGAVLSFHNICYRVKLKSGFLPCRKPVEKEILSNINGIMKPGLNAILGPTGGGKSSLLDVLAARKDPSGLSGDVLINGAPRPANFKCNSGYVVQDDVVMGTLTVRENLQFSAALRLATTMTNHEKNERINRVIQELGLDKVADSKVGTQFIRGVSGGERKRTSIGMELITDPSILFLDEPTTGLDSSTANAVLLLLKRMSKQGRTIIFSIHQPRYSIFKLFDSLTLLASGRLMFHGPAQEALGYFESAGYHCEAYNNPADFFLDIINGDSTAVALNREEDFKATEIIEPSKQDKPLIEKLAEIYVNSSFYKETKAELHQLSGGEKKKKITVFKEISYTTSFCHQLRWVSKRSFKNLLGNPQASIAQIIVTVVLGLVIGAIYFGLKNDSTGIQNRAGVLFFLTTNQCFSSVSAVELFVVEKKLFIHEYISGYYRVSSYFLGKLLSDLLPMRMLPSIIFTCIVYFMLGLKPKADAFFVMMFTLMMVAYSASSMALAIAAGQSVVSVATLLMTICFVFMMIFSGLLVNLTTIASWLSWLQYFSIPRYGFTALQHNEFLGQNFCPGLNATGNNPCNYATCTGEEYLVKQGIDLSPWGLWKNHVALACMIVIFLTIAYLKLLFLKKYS
Description: BCRP-mediated mitoxantrone efflux inhibition, ABCG2-transfected HEK293 cells, flow cytometry. A general note: Flow cytometry measures light scatter and fluorescence of single cells or particles in a stream.
Description: The cells were seeded in 96-well plates at a density of 5×10^4 cells/well in 200 μL of medium and incubated overnight. Then the growth medium was changed to fresh medium containing the compounds and in the presence of 4 μM MX as a fluorescent probe for BCRP-mediated efflux at a final concentration of 0.5% (v/v) DMSO. After 30 min incubation at 37° C., the medium was removed, and the cells were washed with 100 μL of Dulbecco's phosphate-buffered saline (DPBS) followed by dissociation of the cells for 5 min at 37° C. mediated by 25 μL trypsin. Finally, trypsin was neutralised with 175 μL of DPBS ice-cold with 2% bovine serum albumin (BSA) and the cells were carefully resuspended. As a selectivity assay, the same experiment was performed for P-gp and MRP1-mediated efflux with 0.5 μM R123 or 0.2 μM cAM as respective fluorescent substrates instead of MX.
Intracellular fluorescence was measured with a MacsQUANT VRB Analyzer flow cytometer (Miltenyi Biotec) with at least 5000 events recorded. While MX was excited at 635 nm and the fluorescence emission recorded in a 655-730 nm window, R123 and cAM were excited at 488 nm and recorded in a 525/50 nm filter. The compound inhibition yield was estimated by the following equation:
where G2FA is the fluorescence emission (a.u.) of accumulated fluorophore in cells expressing the efflux pump incubated with a fluorescent substrate and the test compound. G2FBG is the resulting background fluorescence emission (a.u.) in cells transfected with ABCG2 (no substrate or test compound). G2S is the fluorescence emission (a.u.) of accumulated fluorophore in cells expressing the efflux pump incubated with substrate only. HEKFA is the fluorescence emission (a.u.) of accumulated fluorophore in control cells incubated with the substrate and test compound. HEKFBG is the resulting background fluorescence emission (a.u.) in control cells (no substrate or test compound). All values are given as the geometric mean fluorescence emission (a.u.) in a 655-730 nm filter (635 nm excitation) measured over 5000 events. The tests were performed in triplicate.

Data set [3] concerns the target T3, MRP1 (ABCC1) (Homo sapiens, UniProt P33527).
T3 construct: expressed in transfected cells; host or cells: Flp-In 293
Description: MRP1-mediated calcein-AM efflux inhibition (selectivity assay), ABCC1-transfected Flp-In 293 cells. It counts as cell-based. The following applies: probe calcein-AM (cAM), 0.2 μM cAM; for inhibition at 30 min, 1 μM: [Inhibitor] 1 μM; for inhibition at 30 min, 10 μM: [Inhibitor] 10 μM. As for the experimental part:
as §1

The conditions of data set [4]: hydrolysis of tertiary butyl ester to inactive metabolite; cited from earlier work.
The mark [5] stands for this setting: human, probe mitoxantrone (MX), 4 μM.

T1 sequence (P08183 whole entry): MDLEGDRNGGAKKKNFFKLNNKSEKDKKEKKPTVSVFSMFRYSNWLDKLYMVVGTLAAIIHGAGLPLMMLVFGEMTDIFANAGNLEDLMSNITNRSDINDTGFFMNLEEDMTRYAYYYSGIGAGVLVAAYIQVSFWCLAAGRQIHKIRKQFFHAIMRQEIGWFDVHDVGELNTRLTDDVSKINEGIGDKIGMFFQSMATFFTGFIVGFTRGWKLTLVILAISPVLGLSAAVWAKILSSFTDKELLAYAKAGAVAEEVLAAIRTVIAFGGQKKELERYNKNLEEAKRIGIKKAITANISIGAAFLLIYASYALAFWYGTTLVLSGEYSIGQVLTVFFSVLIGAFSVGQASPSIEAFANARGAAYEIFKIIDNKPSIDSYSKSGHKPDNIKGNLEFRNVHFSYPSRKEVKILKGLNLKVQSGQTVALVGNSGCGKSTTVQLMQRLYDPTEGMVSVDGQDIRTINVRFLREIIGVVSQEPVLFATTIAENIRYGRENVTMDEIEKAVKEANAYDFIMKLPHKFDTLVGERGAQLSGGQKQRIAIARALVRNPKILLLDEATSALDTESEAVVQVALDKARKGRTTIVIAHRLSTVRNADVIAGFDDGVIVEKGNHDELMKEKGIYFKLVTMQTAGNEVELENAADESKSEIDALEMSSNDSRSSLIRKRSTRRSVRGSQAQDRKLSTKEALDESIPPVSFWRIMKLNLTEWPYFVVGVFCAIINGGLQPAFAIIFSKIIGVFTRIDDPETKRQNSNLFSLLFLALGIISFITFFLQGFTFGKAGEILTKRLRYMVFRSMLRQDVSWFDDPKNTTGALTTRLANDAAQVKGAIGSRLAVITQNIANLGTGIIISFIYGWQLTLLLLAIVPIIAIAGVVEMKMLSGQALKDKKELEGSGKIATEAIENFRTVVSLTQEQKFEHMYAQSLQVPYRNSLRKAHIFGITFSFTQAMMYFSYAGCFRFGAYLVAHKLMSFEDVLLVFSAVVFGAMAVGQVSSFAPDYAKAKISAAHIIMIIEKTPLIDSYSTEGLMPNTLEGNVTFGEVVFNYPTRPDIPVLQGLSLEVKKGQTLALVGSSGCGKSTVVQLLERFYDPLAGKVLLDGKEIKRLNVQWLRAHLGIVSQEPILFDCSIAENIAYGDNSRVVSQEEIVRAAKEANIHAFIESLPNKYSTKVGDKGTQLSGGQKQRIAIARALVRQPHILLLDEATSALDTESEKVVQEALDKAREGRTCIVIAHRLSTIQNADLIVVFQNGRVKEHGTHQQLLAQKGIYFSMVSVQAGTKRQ
T3 sequence (P33527 whole entry): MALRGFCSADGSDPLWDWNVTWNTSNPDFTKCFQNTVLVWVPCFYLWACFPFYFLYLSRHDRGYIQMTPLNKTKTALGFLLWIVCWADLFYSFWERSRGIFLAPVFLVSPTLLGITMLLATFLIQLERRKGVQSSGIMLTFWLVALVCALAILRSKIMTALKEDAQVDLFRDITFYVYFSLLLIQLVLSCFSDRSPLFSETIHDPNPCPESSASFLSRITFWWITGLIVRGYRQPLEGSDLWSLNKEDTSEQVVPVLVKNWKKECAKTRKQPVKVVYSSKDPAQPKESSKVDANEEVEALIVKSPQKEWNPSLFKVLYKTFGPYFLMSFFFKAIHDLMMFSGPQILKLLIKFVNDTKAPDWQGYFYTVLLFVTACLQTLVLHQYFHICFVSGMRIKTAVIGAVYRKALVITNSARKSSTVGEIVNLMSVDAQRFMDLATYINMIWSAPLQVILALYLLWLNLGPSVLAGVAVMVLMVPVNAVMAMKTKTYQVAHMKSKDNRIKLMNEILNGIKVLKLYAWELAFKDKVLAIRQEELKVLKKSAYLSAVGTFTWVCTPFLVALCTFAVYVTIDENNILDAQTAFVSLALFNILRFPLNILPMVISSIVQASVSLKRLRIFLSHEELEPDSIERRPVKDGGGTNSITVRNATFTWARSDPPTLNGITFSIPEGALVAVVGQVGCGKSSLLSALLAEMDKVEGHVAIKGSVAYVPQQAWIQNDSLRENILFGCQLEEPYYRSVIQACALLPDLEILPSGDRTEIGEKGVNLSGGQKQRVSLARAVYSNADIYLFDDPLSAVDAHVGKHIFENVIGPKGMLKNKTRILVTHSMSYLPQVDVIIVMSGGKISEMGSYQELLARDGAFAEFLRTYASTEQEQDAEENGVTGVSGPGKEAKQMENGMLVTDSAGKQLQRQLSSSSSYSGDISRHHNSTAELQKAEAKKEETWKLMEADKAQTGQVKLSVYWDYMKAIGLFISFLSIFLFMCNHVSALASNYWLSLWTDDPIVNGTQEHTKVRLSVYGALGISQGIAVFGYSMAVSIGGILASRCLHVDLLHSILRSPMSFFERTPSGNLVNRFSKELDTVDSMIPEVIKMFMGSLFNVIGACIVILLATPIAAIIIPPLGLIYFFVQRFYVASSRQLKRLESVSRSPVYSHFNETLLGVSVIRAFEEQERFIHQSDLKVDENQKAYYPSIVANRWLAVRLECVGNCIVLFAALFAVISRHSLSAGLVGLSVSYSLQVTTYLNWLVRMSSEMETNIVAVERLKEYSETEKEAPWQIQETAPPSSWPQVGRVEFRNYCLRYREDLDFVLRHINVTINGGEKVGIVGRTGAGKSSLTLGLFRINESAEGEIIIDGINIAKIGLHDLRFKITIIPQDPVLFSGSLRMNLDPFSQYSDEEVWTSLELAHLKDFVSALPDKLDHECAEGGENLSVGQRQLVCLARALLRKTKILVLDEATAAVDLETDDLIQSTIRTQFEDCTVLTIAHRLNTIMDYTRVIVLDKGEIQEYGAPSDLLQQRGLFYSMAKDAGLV

For `COC(=O)[C@@H](Cc1c[nH]c2ccccc12)NC(=O)c1cc(=O)c2c(OCc3ccc(Br)cc3)cccc2o1` [5i (series 1), methyl (5-((4-bromobenzyl)oxy)-4-oxo-4H-chromene-2-carbonylamino)-D-tryptophanate], the melting point (as a rule, the temperature, or range, at which the solid turns liquid) was in the range of 236.2 to 237.9 °C. Besides, in data set [1], the inhibition (usually how much of the control response was suppressed) at 30 min, 1 μM turned out to be 7.2 ± 1.3% and the inhibition at 30 min, 10 μM was 6.1 ± 1.1%. Further, it took 0.29 ± 0.05 µM to reach half-maximal inhibition in data set [2] (IC50). In data set [2] (setting [5]), this compound displayed an inhibition at 30 min, 1 µM of 84.8%; an inhibition at 30 min, 1 μM of 85 ± 12%; an inhibition at 30 min, 10 μM of 96.3 ± 19%. Moreover, in data set [3], the inhibition at 30 min, 1 μM is 11.9% and the inhibition at 30 min, 10 μM is 12.6%.

`CCC(C)[C@H](NC(=O)c1cc(=O)c2c(OCc3ccccc3Br)cccc2o1)C(=O)O` (stereo partly drawn) [6a (series 1), (5-((2-bromobenzyl)oxy)-4-oxo-4H-chromene-2-carbonylamino)-L-alloisoleucine] came in with a melting point of 242.8 to 243.7 °C. In addition, in data set [1], the inhibition at 30 min, 1 μM turned out to be 7.8% and the inhibition at 30 min, 10 μM was 7.9 ± 2.3%. In data set [2] (setting [5]), this compound yielded an inhibition at 30 min, 1 μM of 0% and an inhibition at 30 min, 10 μM of 1.6 ± 3.1%. Besides, in data set [3], the inhibition at 30 min, 1 μM was 17.1% and the inhibition at 30 min, 10 μM was 13.1 ± 2.4%.

Regarding `COc1ccc2c3c([nH]c2c1)[C@H](CC(C)C)N1C(=O)[C@H](CCC(=O)OC(C)(C)C)NC(=O)[C@@H]1C3` [Ko143], in data set [4], the “rapidly metabolised, time” value is 60 min.

(Values after patent publication US20220267289A1, “SELECTIVE BCRP/ABCG2 TRANSPORTER INHIBITORS AS AGENTS TO ABOLISH RESISTANCE TO ANTI-CANCER AGENTS” (UNIVERSITE GRENOBLE ALPES, priority 2019, published 2022).)
